Reference: ChEMBL document CHEMBL1133669 (J Med Chem, 2000)

Legend:
Carbonic anhydrase 4 = biological target: T1, Carbonic anhydrase 4 (Bos taurus, UniProt Q95323)
T1 sequence (Q95323 whole entry): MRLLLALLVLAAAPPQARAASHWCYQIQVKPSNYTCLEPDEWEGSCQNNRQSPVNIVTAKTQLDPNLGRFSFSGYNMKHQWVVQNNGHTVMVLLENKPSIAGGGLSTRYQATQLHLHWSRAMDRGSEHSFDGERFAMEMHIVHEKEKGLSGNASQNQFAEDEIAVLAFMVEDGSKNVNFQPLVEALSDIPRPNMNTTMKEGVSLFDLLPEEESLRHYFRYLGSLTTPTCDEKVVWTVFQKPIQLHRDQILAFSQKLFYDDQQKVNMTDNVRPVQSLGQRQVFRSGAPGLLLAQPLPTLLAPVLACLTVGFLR
Description: Inhibitory activity against bovine carbonic anhydrase IV (CA4), isolated from bovine lung microsomes

Carbonic anhydrase 1 = Carbonic anhydrase 1 (Homo sapiens, UniProt P00915)
Sequence of Carbonic anhydrase 1 (P00915 whole entry): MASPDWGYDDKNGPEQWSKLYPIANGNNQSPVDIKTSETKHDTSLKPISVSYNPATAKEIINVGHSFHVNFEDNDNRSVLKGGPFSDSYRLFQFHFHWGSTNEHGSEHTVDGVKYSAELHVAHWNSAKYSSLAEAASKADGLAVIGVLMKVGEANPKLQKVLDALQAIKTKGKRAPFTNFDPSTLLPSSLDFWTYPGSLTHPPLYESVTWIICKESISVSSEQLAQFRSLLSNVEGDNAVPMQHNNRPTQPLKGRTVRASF
Description: Inhibitory activity against human carbonic anhydrase I (CA1)

Compound | Ki (Carbonic anhydrase 4) | Ki (Carbonic anhydrase 1)
Cc1cc(C)[n+](CC(=O)NNc2ccc(S(N)(=O)=O)cc2)c(C)c1 | 450 nM | 35000 nM
CCc1cc(-c2ccccc2)cc(CC)[n+]1CC(=O)Nc1nccc(Nc2ccc(S(N)(=O)=O)cc2)n1 | 58 nM | 45 nM
Cc1cc(-c2ccccc2)cc(C)[n+]1CC(=O)OCCc1ccc(S(N)(=O)=O)cc1 | 69 nM | 1100 nM
CC(C)c1cc(-c2ccccc2)cc(C(C)C)[n+]1CC(=O)Nc1ccc(S(=O)(=O)Nc2nnc(S(N)(=O)=O)s2)cc1 | 10 nM | 14 nM
Cc1cc(-c2ccccc2)cc(C)[n+]1CC(=O)OCCOc1ccc2nc(S(N)(=O)=O)sc2c1 | 16 nM | 9 nM
CC(C)c1cc(-c2ccccc2)cc(C(C)C)[n+]1CC(=O)OCc1ccc(S(N)(=O)=O)cc1 | 120 nM | 1770 nM
Cc1cc(-c2ccccc2)cc(C)[n+]1CC(=O)Nc1ccccc1S(N)(=O)=O | 290 nM | 25300 nM
Cc1cc(C)[n+](CC(=O)Nc2ccc(S(N)(=O)=O)cc2I)c(C)c1 | 78 nM | 810 nM
Cc1cc(-c2ccccc2)cc(C)[n+]1CC(=O)OCc1ccc(S(N)(=O)=O)cc1 | 75 nM | 1350 nM
Cc1cc(C)[n+](CC(=O)Nc2ccc3nc(S(N)(=O)=O)sc3c2)c(C)c1 | 50 nM | 15 nM
CCc1cc(-c2ccccc2)cc(CC)[n+]1CC(=O)Nc1ccc(S(=O)(=O)Nc2nnc(S(N)(=O)=O)s2)cc1 | 9 nM | 12 nM
CC(C)c1cc(-c2ccccc2)cc(C(C)C)[n+]1CC(=O)Nc1cccc(S(N)(=O)=O)c1 | 345 nM | 23100 nM
Cc1cc(-c2ccccc2)cc(C)[n+]1CC(=O)Nc1ccc(S(N)(=O)=O)cc1F | 36 nM | 700 nM
Cc1cc(C)[n+](CC(=O)Nc2ccc(S(=O)(=O)Nc3cccc(S(N)(=O)=O)c3)cc2)c(C)c1 | 86 nM | 61 nM
CCc1cc(-c2ccccc2)cc(CC)[n+]1CC(=O)Nc1ccccc1S(N)(=O)=O | 335 nM | 27500 nM
CCc1cc(-c2ccccc2)cc(CC)[n+]1CC(=O)Nc1ccc(S(N)(=O)=O)cc1 | 170 nM | 15000 nM
Cc1cc(C)[n+](CC(=O)Nc2ccccc2S(N)(=O)=O)c(C)c1 | 425 nM | 32000 nM
CCc1cc(-c2ccccc2)cc(CC)[n+]1CC(=O)Nc1ccc(S(N)(=O)=O)cc1Br | 55 nM | 615 nM
Cc1cc(-c2ccccc2)cc(C)[n+]1CC(=O)Nc1ccc(S(N)(=O)=O)cc1Br | 35 nM | 600 nM
Cc1cc(C)[n+](CC(=O)NCCc2ccc(S(N)(=O)=O)cc2)c(C)c1 | 71 nM | 805 nM
Cc1cc(-c2ccccc2)cc(C)[n+]1CC(=O)Nc1c(S(N)(=O)=O)cc(S(N)(=O)=O)c(Cl)c1Cl | 31 nM | 380 nM
CCc1cc(-c2ccccc2)cc(CC)[n+]1CC(=O)Nc1cc(C(F)(F)F)c(S(N)(=O)=O)cc1S(N)(=O)=O | 33 nM | 310 nM
CC(C)c1cc(-c2ccccc2)cc(C(C)C)[n+]1CC(=O)Oc1ccc2nc(S(N)(=O)=O)sc2c1 | 39 nM | 12 nM

Compound | Ki (Carbonic anhydrase 4) | Ki (Carbonic anhydrase 1)
Cc1cc(C)[n+](CC(=O)OCCOc2ccc3nc(S(N)(=O)=O)sc3c2)c(C)c1 | 33 nM | 12 nM
CCc1cc(-c2ccccc2)cc(CC)[n+]1CC(=O)Nc1ccc2nc(S(N)(=O)=O)sc2c1 | 30 nM | 11 nM
CCc1cc(-c2ccccc2)cc(CC)[n+]1CC(=O)OCc1ccc(S(N)(=O)=O)cc1 | 97 nM | 1700 nM
Cc1cc(-c2ccccc2)cc(C)[n+]1CC(=O)Nc1nccc(Nc2ccc(S(N)(=O)=O)cc2)n1 | 50 nM | 35 nM
CCc1cc(-c2ccccc2)cc(CC)[n+]1CC(=O)Nc1ccc(S(=O)(=O)Nc2ccc(S(N)(=O)=O)cc2)cc1 | 63 nM | 46 nM
Cc1cc(C)[n+](CC(=O)NCc2ccc(S(N)(=O)=O)cc2)c(C)c1 | 80 nM | 1500 nM
Cc1cc(C)[n+](CC(=O)Nc2ccc(S(N)(=O)=O)cc2)c(C)c1 | 190 nM | 16000 nM
CC(C)c1cc(-c2ccccc2)cc(C(C)C)[n+]1CC(=O)NNc1ccc(S(N)(=O)=O)cc1 | 360 nM | 34000 nM
CC(C)c1cc(-c2ccccc2)cc(C(C)C)[n+]1CC(=O)Nc1cc(C(F)(F)F)c(S(N)(=O)=O)cc1S(N)(=O)=O | 42 nM | 310 nM
CC(C)c1cc(-c2ccccc2)cc(C(C)C)[n+]1CC(=O)NCc1ccc(S(N)(=O)=O)cc1 | 75 nM | 1450 nM
CC(C)c1cc(-c2ccccc2)cc(C(C)C)[n+]1CC(=O)Nc1cc(Cl)c(S(N)(=O)=O)cc1S(N)(=O)=O | 46 nM | 350 nM
CC(C)c1cc(-c2ccccc2)cc(C(C)C)[n+]1CC(=O)Nc1nccc(Nc2ccc(S(N)(=O)=O)cc2)n1 | 62 nM | 47 nM
CC(C)c1cc(-c2ccccc2)cc(C(C)C)[n+]1CC(=O)Nc1ccc(S(N)(=O)=O)cc1Cl | 56 nM | 600 nM
Cc1cc(-c2ccccc2)cc(C)[n+]1CC(=O)Nc1cccc(S(N)(=O)=O)c1 | 280 nM | 19600 nM
CCc1cc(-c2ccccc2)cc(CC)[n+]1CC(=O)Nc1c(S(N)(=O)=O)cc(S(N)(=O)=O)c(Cl)c1Cl | 35 nM | 400 nM
Cc1cc(-c2ccccc2)cc(C)[n+]1CC(=O)Nc1cc(C(F)(F)F)c(S(N)(=O)=O)cc1S(N)(=O)=O | 33 nM | 300 nM
Cc1cc(-c2ccccc2)cc(C)[n+]1CC(=O)/N=c1/sc(S(N)(=O)=O)nn1C | 16 nM | 200 nM
Cc1cc(-c2ccccc2)cc(C)[n+]1CC(=O)Nc1ccc(S(N)(=O)=O)cc1Cl | 38 nM | 600 nM
CC(C)c1cc(-c2ccccc2)cc(C(C)C)[n+]1CC(=O)Nc1ccc(S(N)(=O)=O)cc1 | 180 nM | 15000 nM
Cc1cc(-c2ccccc2)cc(C)[n+]1CC(=O)Nc1cc(Cl)c(S(N)(=O)=O)cc1S(N)(=O)=O | 30 nM | 350 nM
CCc1cc(-c2ccccc2)cc(CC)[n+]1CC(=O)Nc1nnc(S(N)(=O)=O)s1 | 25 nM | 300 nM
Cc1cc(C)[n+](CC(=O)Nc2ccc(S(N)(=O)=O)cc2Br)c(C)c1 | 77 nM | 800 nM
Cc1cc(-c2ccccc2)cc(C)[n+]1CC(=O)Nc1ccc(S(=O)(=O)Nc2ccc(S(N)(=O)=O)cc2)cc1 | 54 nM | 41 nM

Compound | Ki (Carbonic anhydrase 4) | Ki (Carbonic anhydrase 1)
CCc1cc(-c2ccccc2)cc(CC)[n+]1CC(=O)Nc1ccc(S(=O)(=O)Nc2cccc(S(N)(=O)=O)c2)cc1 | 60 nM | 43 nM
CCc1cc(-c2ccccc2)cc(CC)[n+]1CC(=O)NNc1ccc(S(N)(=O)=O)cc1 | 340 nM | 28000 nM
Cc1cc(-c2ccccc2)cc(C)[n+]1CC(=O)Nc1ccc(S(=O)(=O)Nc2cccc(S(N)(=O)=O)c2)cc1 | 55 nM | 38 nM
Cc1cc(C)[n+](CC(=O)Nc2cc(Cl)c(S(N)(=O)=O)cc2S(N)(=O)=O)c(C)c1 | 64 nM | 360 nM
CCc1cc(-c2ccccc2)cc(CC)[n+]1CC(=O)Nc1cc(Cl)c(S(N)(=O)=O)cc1S(N)(=O)=O | 36 nM | 350 nM
CC(C)c1cc(-c2ccccc2)cc(C(C)C)[n+]1CC(=O)NCCc1ccc(S(N)(=O)=O)cc1 | 70 nM | 775 nM
CC(C)c1cc(-c2ccccc2)cc(C(C)C)[n+]1CC(=O)Nc1c(S(N)(=O)=O)cc(S(N)(=O)=O)c(Cl)c1Cl | 49 nM | 470 nM
Cc1cc(C)[n+](CC(=O)Nc2cc(C(F)(F)F)c(S(N)(=O)=O)cc2S(N)(=O)=O)c(C)c1 | 58 nM | 320 nM
Cc1cc(-c2ccccc2)cc(C)[n+]1CC(=O)NCCc1ccc(S(N)(=O)=O)cc1 | 46 nM | 720 nM
CC(C)c1cc(-c2ccccc2)cc(C(C)C)[n+]1CC(=O)Nc1ccc(S(N)(=O)=O)cc1Br | 70 nM | 645 nM
CCc1cc(-c2ccccc2)cc(CC)[n+]1CC(=O)Nc1ccc(S(N)(=O)=O)cc1I | 64 nM | 620 nM
Cc1cc(-c2ccccc2)cc(C)[n+]1CC(=O)Nc1ccc(S(N)(=O)=O)cc1I | 59 nM | 610 nM
Cc1cc(-c2ccccc2)cc(C)[n+]1CC(=O)Nc1ccc2nc(S(N)(=O)=O)sc2c1 | 19 nM | 10 nM
Cc1cc(C)[n+](CC(=O)OCc2ccc(S(N)(=O)=O)cc2)c(C)c1 | 140 nM | 1800 nM
Cc1cc(C)[n+](CC(=O)Oc2ccc3nc(S(N)(=O)=O)sc3c2)c(C)c1 | 29 nM | 13 nM
CCc1cc(-c2ccccc2)cc(CC)[n+]1CC(=O)/N=c1/sc(S(N)(=O)=O)nn1C | 25 nM | 300 nM
Cc1cc(C)[n+](CC(=O)Nc2ccc(S(N)(=O)=O)cc2F)c(C)c1 | 44 nM | 750 nM
CC(C)c1cc(-c2ccccc2)cc(C(C)C)[n+]1CC(=O)Nc1ccc(S(=O)(=O)/N=c2/sc(S(N)(=O)=O)nn2C)cc1 | 10 nM | 15 nM
CC(C)c1cc(-c2ccccc2)cc(C(C)C)[n+]1CC(=O)Nc1ccc(S(=O)(=O)Nc2cccc(S(N)(=O)=O)c2)cc1 | 72 nM | 53 nM
Cc1cc(-c2ccccc2)cc(C)[n+]1CC(=O)NNc1ccc(S(N)(=O)=O)cc1 | 310 nM | 26000 nM
CC(C)c1cc(-c2ccccc2)cc(C(C)C)[n+]1CC(=O)Nc1ccc(S(=O)(=O)Nc2ccc(S(N)(=O)=O)cc2)cc1 | 73 nM | 50 nM
Cc1cc(C)[n+](CC(=O)NCCC(=O)Nc2nnc(S(N)(=O)=O)s2)c(C)c1 | 18 nM | 43 nM
Cc1cc(C)[n+](CC(=O)Nc2cccc(S(N)(=O)=O)c2)c(C)c1 | 410 nM | 24000 nM
